# Measured values from US20030036514A1, “Compositions and methods for the diagnosis and treatment of psychogenic erectile dysfunction” (priority 2001, published 2003).
# Read-outs that look alike come from different tables or passages of the source. dPhe(Cl) = D-phenylalanine carrying a chlorine on the ring; Nle = CCCC[C@H](N)C(=O)O
# What was measured:
# [1] = tested on: patients; details: injection, alone or combined with pheniolamine; cited from earlier work
# [2] = tested on: human male; format: in vivo
# Experimental: The peptides described herein were prepared by sterile methods to a final concentration of 10 mg of peptide per ml of physiological salina. In addition to a full dose providing 10 mg of the peptide to the individual, doses of 0.1 to 0.3 ml (providing 1 mg to 3 mg of the peptide to each individual) of this stock material were also injected into volunteers, with a dose of 0.1 to 0.2 ml being the most often used dosage.
# A dose of 3.75 mg given to volunteers produced a long lasting erection of 4 to 6 hour duration. […] In some, this discomfort was considerable. […] Accordingly, although dosages of from about 1.0 mg to about 10.0 mg show the desired activity according to the present invention, it is preferred that the lower ranges of dosage which bring about the desired erection without undesirable side effects be used. Accordingly, it is preferred that dosages of about 1.5 mg to 2.5 mg of peptide be provided when the route of administration is subcutaneous or intramuscular. With other routes of administration, this range may require adjustment, however, it is still preferred that the lower range of adjusted effective dosages for the selected route of administration be used.
# Another of the peptides according to the present invention (Ac-Nle-Asp-His-D-Phe-Cl-Arg-Trp-Lys-Gly-NH2) induced an erection within 60 minutes following administration at a concentration of 2.5 mg. This erection lasted, intermittently, for up to six hours.
# [3] = tested on: castrated dog; assay: Erectile response after injection into the castrated dog; format: in vivo
compound,measurement,setting,value
COc1ccc(Cc2nccc3cc(OC)c(OC)cc23)cc1OC [papaverine],patients in whom an erection is induced,[1],about 70%
Ac-Nle-Asp-His-D-Phe-Cl-Arg-Trp-Lys-Gly-NH2 ({Ac-Nle-Asp-H2N-dPhe(Cl)}-RWKG-NH2),time to erection following administration,"[2]; 1.25 mg, compared with 2.5 mg, human",took longer to initially occur
same,duration of erection (sustained intermittently),"[2]; 1.25 mg, human",up to 6 hours
same,time to erection following administration,"[2]; 2.5 mg, human",≤ 60 min
Ac-Nle-Asp-His-D-Phe-Cl-Arg-Trp-Lys-NH2 [Example II],erectile activity,"[2]; 1.25 mg (smallest dose) subcutaneously, human volunteers",generally no erectile activity was noted
same,stomach discomfort,"[2]; human, in vivo",stomach discomfort was noted
same,erectile response,[3]; castrated dog first primed with testosterone,did so
same,erectile response,"[3]; castrated dog, not primed",caused no erectile response
Ac-Ser-Tyr-Ser-Nle-Glu-His-D-Phe-Cl-Arg-Trp-Gly-Lys-Pro-Val-NH2 [reference compound],erectile response,"[2]; highest dose administered (about 20 mg), human",did not cause an erectile response
